# Biological target: STING (Homo sapiens, UniProt Q86WV6, G230A/H232R/R293Q/R71H)
# Assay: STING reporter assay: THP1-Dual KO-IFNAR2 cells stimulated with 2′3′cGAMP, luciferase reporter activity
# Assay type: cell-based
# Settings: 15 μM 2′3′cGAMP, 24h, class symbols
# How it was run: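 THP1-Dual KO-IFNAR2 cells (2×10E6 cells/mL) treated with compounds at 0.0017-100 μM, then stimulated with 2′3′cGAMP (15 μM final) delivered by Lipofectamine 2000; 24 h at 37° C. Supernatant luciferase read by QUANTI-Luc Plus luminescence; EC50 from dose-response.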
# Chain of STING (Q86WV6 whole entry R71H/G230A/H232R/R293Q): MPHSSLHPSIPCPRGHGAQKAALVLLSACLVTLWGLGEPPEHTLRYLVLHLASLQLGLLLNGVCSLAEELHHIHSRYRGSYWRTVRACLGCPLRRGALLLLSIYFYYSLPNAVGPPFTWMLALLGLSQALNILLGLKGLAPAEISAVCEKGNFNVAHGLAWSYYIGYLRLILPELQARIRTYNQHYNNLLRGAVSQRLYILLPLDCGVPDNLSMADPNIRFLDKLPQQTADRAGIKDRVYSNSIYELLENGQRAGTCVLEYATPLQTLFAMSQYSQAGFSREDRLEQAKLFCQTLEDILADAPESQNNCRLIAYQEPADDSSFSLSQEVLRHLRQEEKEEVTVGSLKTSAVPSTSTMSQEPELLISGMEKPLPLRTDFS
row,SMILES,EC50 [µM]
1,"FC(F)(F)COc1cccc(Nc2ccc3cc[nH]c3c2)n1 [Compound 396, N-(6-(2,2,2-trifluoroethoxy)pyridin-2-yl)-1H-indol-6-amine]",5 to 100
2,"c1ccc(-c2ccnc(Nc3ccc4cc[nH]c4c3)c2)cc1 [Compound 401, N-(4-phenylpyridin-2-yl)-1H-indol-6-amine]",1 to 5
3,"CC(C)(C)c1ccnc(Nc2ccc3cc[nH]c3c2)c1 [Compound 402, N-(4-(tert-butyl)pyridin-2-yl)-1H-indol-6-amine]",5 to 100
4,"FC(F)(F)Oc1ccc(Nc2ccc3cc[nH]c3c2)nc1 [Compound 403, N-(5-(trifluoromethoxy)pyridin-2-yl)-1H-indol-6-amine]",5 to 100
5,"FC(F)(F)c1nc(Nc2ccc3cc[nH]c3c2)ccc1Cl [Compound 405, N-(5-chloro-6-(trifluoromethyl)pyridin-2-yl)-1H-indol-6-amine]",0.2 to 1
6,"CC(C)c1cccc(Nc2ccc3cc[nH]c3c2)n1 [Compound 406, N-(6-isopropylpyridin-2-yl)-1H-indol-6-amine]",5 to 100
7,"FC(F)(F)Cc1ccc(Nc2ccc3cc[nH]c3c2)nc1 [Compound 408, N-(5-(2,2,2-trifluoroethyl)pyridin-2-yl)-1H-indol-6-amine]",5 to 100
8,"CCOCc1ccc(Nc2ccc3cc[nH]c3c2)nc1 [Compound 412, N-(5-(ethoxymethyl)pyridin-2-yl)-1H-indol-6-amine]",5 to 100
9,"CC(C)(C)OC(=O)N1Cc2cnc(Nc3ccc4cc[nH]c4c3)nc2C1 [Compound 418, tert-butyl 2-((1H-indol-6-yl)amino)-5H-pyrrolo[3,4-d]pyrimidine-6(7H)-carboxylate]",5 to 100
10,"CC(C)(C)c1cccc(Nc2ccc3cc[nH]c3c2)n1 [Compound 420, N-(6-(tert-butyl)pyridin-2-yl)-1H-indol-6-amine]",1 to 5
11,"Cc1ccc(Nc2ccc3cc[nH]c3c2)nc1C(F)(F)F [Compound 421, N-(5-methyl-6-(trifluoromethyl)pyridin-2-yl)-1H-indol-6-amine]",1 to 5
12,"O=S(=O)(c1ccc(Nc2ccc3cc[nH]c3c2)nc1)N1CCCCC1 [Compound 422, N-(5-(piperidin-1-ylsulfonyl)pyridin-2-yl)-1H-indol-6-amine]",5 to 100
13,"c1ccc(-c2ccc(Nc3ccc4cc[nH]c4c3)nc2)cc1 [Compound 424, N-(5-phenylpyridin-2-yl)-1H-indol-6-amine]",1 to 5
14,"CC(C)(C)c1ccc(Nc2ccc3cc[nH]c3c2)nc1 [Compound 426, N-(5-(tert-butyl)pyridin-2-yl)-1H-indol-6-amine]",5 to 100
15,"CC(C)(C)OC(=O)N1CCc2cnc(Nc3ccc4cc[nH]c4c3)nc2C1 [Compound 428, tert-butyl 2-((1H-indol-6-yl)amino)-5,6-dihydropyrido[3,4-d]pyrimidine-7(8H)-carboxylate]",5 to 100
16,"CC(C)(C)OC(=O)N1CCC(c2ccnc(Nc3ccc4cc[nH]c4c3)n2)CC1 [Compound 429, tert-butyl4-(2-((1H-indol-6-yl)amino)pyrimidin-4-yl)piperidine-1-carboxylate]",5 to 100
17,"c1cc2c(c(Nc3ccc4cc[nH]c4c3)n1)CCCC2 [Compound 431, N-(1H-indol-6-yl)-5,6,7,8-tetrahydroisoquinolin-1-amine]",5 to 100

row,SMILES,EC50 [µM]
1,Cc1cc(NC(=O)Nc2cc(Cl)c3cc[nH]c3c2)cnc1N1CCC(F)(F)CC1 [Compound 500],0.2 to 1
2,O=C(Nc1cc(F)cc(C(F)(F)F)c1)Nc1cc(CCO)c2cc[nH]c2c1 [Compound 501],1 to 5
3,COc1cc(NC(=O)NCc2cc(Cl)cc(C(F)(F)F)c2)cc2[nH]ccc12 [Compound 503],0.2 to 1
4,COc1cc(NC(=O)Nc2ccc(C(F)(F)F)cc2)cc2[nH]ccc12 [Compound 504],0.2 to 1
5,COCCc1cc(NC(=O)Nc2ccc(C(F)(F)F)cc2)cc2[nH]ccc12 [Compound 505],1 to 5
6,CC(NC(=O)Nc1cnc2cc[nH]c2c1)c1cc(Cl)cc(C(F)(F)F)c1 (centres unmarked) [Compound 506],5 to 100
7,O=C(NCc1cc(Cl)cc(C(F)(F)F)c1)Nc1cnc2cc[nH]c2c1 [Compound 507],1 to 5
8,CNS(=O)(=O)c1c[nH]c2cc(NC(=O)Nc3ccc(C(F)(F)F)cc3)ccc12 [Compound 508],5 to 100
9,"O=C(Nc1cccc(C(F)(F)F)c1)Nc1cc(CCO)c2cc[nH]c2c1 [Compound 509, 1-(4-(2-hydroxyethyl)-1H-indol-6-yl)-3-(3-(trifluoromethyl)phenyl)urea]",1 to 5
10,"[N-]=[N+]=Nc1ccc(NC(=O)Nc2ccc3cc[nH]c3c2)cc1 [Compound 510, 1-(4-azidophenyl)-3-(1H-indol-6-yl)urea]",1 to 5
11,CNC(=O)OCCc1cc(NC(=O)Nc2ccc(C(F)(F)F)cc2)cc2[nH]ccc12 [Compound 512],1 to 5
12,CN(C)CCc1cc(NC(=O)Nc2ccc(C(F)(F)F)cc2)cc2[nH]ccc12 [Compound 513],5 to 100
13,O=C(Nc1cnc(N2CC(F)(F)C2)c(Cl)c1)Nc1ccc2c(F)c[nH]c2c1 [Compound 514],0.2 to 1
14,O=C(Nc1cnc(N2CC(F)(F)C2)c(F)c1)Nc1cc(Cl)c2cc[nH]c2c1 [Compound 516],0.2 to 1
15,O=C(Nc1ccc(C(F)(F)F)cc1)Nc1cc(Cl)c2c(F)c[nH]c2c1 [Compound 518],0.04 to 0.2
16,O=C(NCCOc1cccnc1)Nc1ccc2cc[nH]c2c1 [Compound 519],5 to 100

# Same assay, conditions: 15 μM 2′3′cGAMP, 24h, numeric bounds
row,SMILES,EC50 [µM]
1,"c1cc(Nc2ccc3cc[nH]c3c2)nc(N2CCCC2)c1 [Compound 397, N-(6-(pyrrolidin-1-yl)pyridin-2-yl)-1H-indol-6-amine]",> 30
2,"CCNc1cccc(Nc2ccc3cc[nH]c3c2)n1 [Compound 398, N2-ethyl-N6-(1H-indol-6-yl)pyridine-2,6-diamine]",> 30
3,"Cc1nc(Nc2ccc3cc[nH]c3c2)ccc1Br [Compound 399, N-(5-bromo-6-methylpyridin-2-yl)-1H-indol-6-amine]",> 30
4,"OCc1cccnc1Nc1ccc2cc[nH]c2c1 [Compound 400, (2-((1H-indol-6-yl)amino)pyridin-3-yl)methanol]",> 30
5,"c1cc2nccnc2c(Nc2ccc3cc[nH]c3c2)n1 [Compound 404, N-(1H-indol-6-yl)pyrido[3,4-b]pyrazin-5-amine]",> 30
6,"c1cnc2c(Nc3ccc4cc[nH]c4c3)nccc2c1 [Compound 407, N-(1H-indol-6-yl)-1,7-naphthyridin-8-amine]",> 30
7,"FC(F)(F)Oc1cccc(Nc2ccc3cc[nH]c3c2)n1 [Compound 409, N-(6-(trifluoromethoxy)pyridin-2-yl)-1H-indol-6-amine]",> 30
8,"FC(F)(F)COc1ccnc(Nc2ccc3cc[nH]c3c2)n1 [Compound 410, N-(4-(2,2,2-trifluoroethoxy)pyrimidin-2-yl)-1H-indol-6-amine]",> 30
9,"c1cc2ccc(Nc3ccc(C4CC4)cn3)cc2[nH]1 [Compound 411, N-(5-cyclopropylpyridin-2-yl)-1H-indol-6-amine]",> 30
10,"FC(F)Oc1ccc(Nc2ccc3cc[nH]c3c2)nc1 [Compound 413, N-(5-(difluoromethoxy)pyridin-2-yl)-1H-indol-6-amine]",> 30
11,"CN1CCC(COc2cnc(Nc3ccc4cc[nH]c4c3)nc2)CC1 [Compound 414, N-(5-((1-methylpiperidin-4-yl)methoxy)pyrimidin-2-yl)-1H-indol-6-amine]",> 30
12,"c1cc2ccnc(Nc3ccc4cc[nH]c4c3)c2cn1 [Compound 415, N-(1H-indol-6-yl)-2,7-naphthyridin-1-amine]",> 30
13,"CC(F)(F)c1ccnc(Nc2ccc3cc[nH]c3c2)c1 [Compound 416, N-(4-(1,1-difluoroethyl)pyridin-2-yl)-1H-indol-6-amine]",> 30
14,"CC(C)(C)OC(=O)N1CCc2nc(Nc3ccc4cc[nH]c4c3)ncc2C1 [Compound 419, tert-butyl 2-((1H-indol-6-yl)amino)-7,8-dihydropyrido[4,3-d]pyrimidine-6(5H)-carboxylate]",> 30
15,"O=S(=O)(c1ccc(Nc2ccc3cc[nH]c3c2)nc1)N1CCCC1 [Compound 423, N-(5-(pyrrolidin-1-ylsulfonyl)pyridin-2-yl)-1H-indol-6-amine]",> 30
16,"Clc1ccc2ccc(Nc3ccc4cc[nH]c4c3)nc2c1Cl [Compound 425, 7,8-dichloro-N-(1H-indol-6-yl)quinolin-2-amine]",> 30
17,"c1ccc(-c2cccc(Nc3ccc4cc[nH]c4c3)n2)cc1 [Compound 427, N-(6-phenylpyridin-2-yl)-1H-indol-6-amine]",> 20.4
18,"CC(N)c1ccnc(Nc2ccc3cc[nH]c3c2)c1 (centres unmarked) [Compound 430, N-(4-(1-aminoethyl)pyridin-2-yl)-1H-indol-6-amine]",> 30
19,"FC(F)(F)c1ccc2cnc(Nc3ccc4cc[nH]c4c3)nc2c1 [Compound 432, N-(1H-indol-6-yl)-7-(trifluoromethyl)quinazol in-2-amine]",> 30
20,"c1cc(Nc2ccc3cc[nH]c3c2)nc(C2CC2)c1 [Compound 433, N-(6-cyclopropylpyridin-2-yl)-1H-indol-6-amine]",> 30
21,"c1cnc2ccnc(Nc3ccc4cc[nH]c4c3)c2c1 [Compound 478, N-(1H-indol-6-yl)-1,6-naphthyridin-5-amine]",> 30
22,COC1CN(c2ncc(NC(=O)Nc3cc(Cl)c4cc[nH]c4c3)cc2C)C1 [Compound 498],> 30
23,Cc1cc(NC(=O)Nc2ccc3c(F)c[nH]c3c2)cnc1N1CCC(F)(F)CC1 [Compound 499],> 1.11
24,N#Cc1cc(NC(=O)Nc2cnc(N3CC(F)(F)C3)c(F)c2)cc2[nH]ccc12 [Compound 511],> 30
25,O=C(Nc1ccc2c(F)c[nH]c2c1)Nc1ccc(N2CC(F)(F)C2)cn1 [Compound 515],> 30
26,O=C(Nc1ccc(N2CC(F)(F)C2)nc1)Nc1ccc2c(F)c[nH]c2c1 [Compound 517],> 30

# Source: patent US20230092163A1, “COMPOUNDS AND COMPOSITIONS FOR TREATING CONDITIONS ASSOCIATED WITH STING ACTIVITY” (IFM Due, Inc., priority 2019, published 2023)
